Experimental data as given in PubChem BioAssay AID2060912 (Molecular Pharmacology Branch, DTP, NCI, 2025).

Tested on: HUVEC/MSC spheroids viability
Assay: Human HUVEC/MSC cell line growth inhibition [KRAS2];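 for viability, T/C: percent of DMSO vehicle control luminescence so 100% = untreated viability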
Conditions: for IC50: curve of first compound; for viability, T/C: stronger effect = lower value
Description: Multicellular complex tumor spheroid response to RAS pathway inhibitors in combination with a targeted agents in patient-derived cell lines with oncogenic KRAS variants from multiple cancer types
A high-throughput screen of multi-cell type tumor spheroids was designed to identify active combinations of targeted small molecules and KRAS pathway inhibitors. Complex spheroids include a stromal component modeled by human endothelial cells (HUVEC) and fibroblasts modeled by human mesenchymal stem cells (MSCs). The concentration ranges selected for each drug and investigational agent were based upon clinically achievable concentrations if the clinical Cmax of the agent was known. * [This particular assayID is a followup dataset requested by reviewers of the manuscript. It is a test of the HUVEC and MSC without the tumor cells, and was conducted using different drug plates and a different plate layout.]
Compounds. The drugs and investigational agents: BI-3406 (NSC825286), BAY-293 (NSC824723), batoprotafib (TNO155; NSC825523), sotorasib (AMG 510; NSC818433), MRTX1257 (NSC819558), elimusertib (BAY 1895344; NSC800525), molibresib (GSK525762; NSC774829), temuterkib (LY3214996; NSC803410), venetoclax (NSC766270), alisertib (NSC759677), olaparib (NSC753686), talazoparib (NSC767125), erdafitinib (NSC781556), ipatasertib (NSC767898), cabozantinib (NSC761068), nintedanib (NSC756659), abemaciclib (NSC768073), docetaxel (NSC628503), trametinib (NSC758246), and sapanisertib (NSC764658) were obtained from the National Cancer Institute (NCI) Developmental Therapeutics Program Chemical Repository. The FDA-approved anticancer drug set is available from the Developmental Therapeutics Program. […] The stock solutions were prepared in dimethyl sulfoxide (DMSO, Sigma-Aldrich, St. Louis, MO, cat. D2650) at 800-fold the tested concentration and stored at -70 degrees C prior to their use. All drugs and investigational agents were tested over a range starting from a high concentration at or near the clinical Cmax and decreasing in half-log increments. If the clinical Cmax for an agent had not been determined, the highest concentration tested was 10 microM.
Cell Culture. All cells were maintained in an incubator at 37 degrees C and 5% CO2 with 95% humidity. The PDC lines were cultured according to standard operating procedures established by the NCI PDMR (https://pdmr.cancer.gov/sops/default.htm). Briefly, all PDCs were thawed and cultured in Matrigel-coated flasks prepared with a working solution of 1X Ham's F-12 nutrient mix, without supplementation (Invitrogen, Waltham, MA, cat. 11765054), 100 U/mL penicillin-streptomycin (Invitrogen, cat. 15140122), and 2.5% Matrigel (Corning Inc., Corning, NY, cat. 354248) for the first three passages. All PDCs were cultured in complete DMEM/F-12 media containing advanced DMEM/F-12 (Invitrogen, cat. 12634028), 4.9% defined fetal bovine serum, heat inactivated (HyClone Laboratories Inc., Logan, UT, cat. SH30070.03HI), 389 ng/mL hydrocortisone (Sigma-Aldrich, cat. H4001), 9.7 ng/mL human EGF recombinant protein (Invitrogen, cat. PHG0313), 23.4 microg/mL adenine (Sigma-Aldrich, cat. A2786), 97.3 U/mL penicillin-streptomycin (Invitrogen, cat. 15140122), 1.9 mM L-glutamine (Invitrogen, cat. 25030081), and 9.7 microM Y-27632 dihydrochloride (Tocris Bioscience, Bristol, United Kingdom, cat. 1254). The PDCs were cultured in complete DMEM/F12 media without 9.7 microM Y-27632 dihydrochloride for at least two passages prior to the screen. The established cell line HOP-62 was cultured in RPMI 1640 medium, HEPES (Invitrogen, cat. 22400105) with 10% defined fetal bovine serum (HyClone Laboratories Inc., cat. SH30070.03) and 2 mM L-glutamine (Invitrogen, cat. 25030081). The pooled donor HUVEC were cultured in endothelial cell growth medium 2 (PromoCell, Heidelberg, Germany, cat. C-22011) and the hMSC were cultured in mesenchymal stem cell growth medium 2 (PromoCell, cat. C-28009). […]

[1] = second compound 0.0316 µM, first compound 0.0316 µM
[2] = second compound 0.0316 µM, first compound 0.1 µM
[3] = second compound 0.1 µM, first compound 0.0316 µM
[4] = second compound 0.1 µM, first compound 0.1 µM
[5] = second compound 0.316 µM, first compound 0.0316 µM
[6] = second compound 0.316 µM, first compound 0.1 µM
[7] = second compound 1 µM, first compound 0.0316 µM
[8] = second compound 1 µM, first compound 0.1 µM
[9] = second compound 3.16 µM, first compound 0.0316 µM
[10] = second compound 3.16 µM, first compound 0.1 µM
[11] = second compound 10 µM, first compound 0.0316 µM
[12] = second compound 10 µM, first compound 0.1 µM

In the case of `CC1(C)CCC(CN2CCN(c3ccc(C(=O)NS(=O)(=O)c4ccc(NCC5CCOCC5)c([N+](=O)[O-])c4)c(Oc4cnc5[nH]ccc5c4)c3)CC2)=C(c2ccc(Cl)cc2)C1` + C=CC(=O)N1CCN(c2nc(=O)n(-c3c(C)ccnc3C(C)C)c3nc(-c4c(O)cccc4F)c(F)cc23)C(C)C1, the IC50 (second compound 0.0316 µM) is reported as 4.57 µM, the IC50 (second compound 0.1 µM) is reported as 4.7 µM and the IC50 (second compound 0.316 µM) is reported as 5.75 µM. The IC50 (second compound 1 µM) was 5.28 µM, the IC50 (second compound 3.16 µM) was 5.97 µM and the IC50 (second compound 10 µM) was 5.96 µM. It also gave a viability, T/C [1] of 105%, a viability, T/C [2] of 92% and a viability, T/C (second compound 0.0316 µM, first compound 0.316 µM) of 95.4%. It also gave a viability, T/C (second compound 0.0316 µM, first compound 1 µM) of 85.4%, a viability, T/C (second compound 0.0316 µM, first compound 3.16 µM) of 75.2% and a viability, T/C (second compound 0.0316 µM, first compound 10 µM) of 2.28%. The viability, T/C [3] was 114%, the viability, T/C [4] was 101% and the viability, T/C (second compound 0.1 µM, first compound 0.316 µM) was 114%. For the same molecule, the viability, T/C (second compound 0.1 µM, first compound 1 µM) was 85.7%, the viability, T/C (second compound 0.1 µM, first compound 3.16 µM) was 80.1% and the viability, T/C (second compound 0.1 µM, first compound 10 µM) was 3.17%. It also gave a viability, T/C [5] of 104%, a viability, T/C [6] of 100% and a viability, T/C (second compound 0.316 µM, first compound 0.316 µM) of 97.2%. The viability, T/C (second compound 0.316 µM, first compound 1 µM) was 115%, the viability, T/C (second compound 0.316 µM, first compound 3.16 µM) was 97.3% and the viability, T/C (second compound 0.316 µM, first compound 10 µM) was 6.37%. For the same molecule, the viability, T/C [7] was 144%, the viability, T/C [8] was 125% and the viability, T/C (second compound 1 µM, first compound 0.316 µM) was 125%. For the same molecule, the viability, T/C (second compound 1 µM, first compound 1 µM) was 115%, the viability, T/C (second compound 1 µM, first compound 3.16 µM) was 86.5% and the viability, T/C (second compound 1 µM, first compound 10 µM) was 6.99%. It also gave a viability, T/C [9] of 97%, a viability, T/C [10] of 123% and a viability, T/C (second compound 3.16 µM, first compound 0.316 µM) of 104%. It also gave a viability, T/C (second compound 3.16 µM, first compound 1 µM) of 113%, a viability, T/C (second compound 3.16 µM, first compound 3.16 µM) of 101% and a viability, T/C (second compound 3.16 µM, first compound 10 µM) of 8.7%. For the same molecule, the viability, T/C [11] was 115%, the viability, T/C [12] was 143% and the viability, T/C (second compound 10 µM, first compound 0.316 µM) was 162%. It also gave a viability, T/C (second compound 10 µM, first compound 1 µM) of 119%, a viability, T/C (second compound 10 µM, first compound 3.16 µM) of 93.6% and a viability, T/C (second compound 10 µM, first compound 10 µM) of 15.4%.

`Cn1ncnc1[C@H]1c2n[nH]c(=O)c3cc(F)cc(c23)N[C@@H]1c1ccc(F)cc1` + C=CC(=O)N1CCN(c2nc(=O)n(-c3c(C)ccnc3C(C)C)c3nc(-c4c(O)cccc4F)c(F)cc23)C(C)C1 was tested, and the IC50 (second compound 0.0316 µM) was > 0.1 µM, the IC50 (second compound 0.1 µM) was > 0.1 µM and the IC50 (second compound 0.316 µM) was > 0.1 µM. The IC50 (second compound 1 µM) was > 0.1 µM, the IC50 (second compound 3.16 µM) was > 0.1 µM and the IC50 (second compound 10 µM) was > 0.1 µM. The viability, T/C (second compound 0.0316 µM, first compound 0.000316 µM) was 101%, the viability, T/C (second compound 0.0316 µM, first compound 0.001 µM) was 100% and the viability, T/C (second compound 0.0316 µM, first compound 0.00316 µM) was 74.3%. For the same molecule, the viability, T/C (second compound 0.0316 µM, first compound 0.01 µM) was 94.3%, the viability, T/C [1] was 83.1% and the viability, T/C [2] was 105%. It also gave a viability, T/C (second compound 0.1 µM, first compound 0.000316 µM) of 92.6%, a viability, T/C (second compound 0.1 µM, first compound 0.001 µM) of 117% and a viability, T/C (second compound 0.1 µM, first compound 0.00316 µM) of 101%. For the same molecule, the viability, T/C (second compound 0.1 µM, first compound 0.01 µM) was 79.5%, the viability, T/C [3] was 96.2% and the viability, T/C [4] was 83.5%. For the same molecule, the viability, T/C (second compound 0.316 µM, first compound 0.000316 µM) was 110%, the viability, T/C (second compound 0.316 µM, first compound 0.001 µM) was 110% and the viability, T/C (second compound 0.316 µM, first compound 0.00316 µM) was 97.2%. It also gave a viability, T/C (second compound 0.316 µM, first compound 0.01 µM) of 97.1%, a viability, T/C [5] of 99.2% and a viability, T/C [6] of 114%. It also gave a viability, T/C (second compound 1 µM, first compound 0.000316 µM) of 114%, a viability, T/C (second compound 1 µM, first compound 0.001 µM) of 106% and a viability, T/C (second compound 1 µM, first compound 0.00316 µM) of 95.4%. For the same molecule, the viability, T/C (second compound 1 µM, first compound 0.01 µM) was 106%, the viability, T/C [7] was 106% and the viability, T/C [8] was 86%. For the same molecule, the viability, T/C (second compound 3.16 µM, first compound 0.000316 µM) was 110%, the viability, T/C (second compound 3.16 µM, first compound 0.001 µM) was 141% and the viability, T/C (second compound 3.16 µM, first compound 0.00316 µM) was 101%. It also gave a viability, T/C (second compound 3.16 µM, first compound 0.01 µM) of 140%, a viability, T/C [9] of 130% and a viability, T/C [10] of 93.5%. The viability, T/C (second compound 10 µM, first compound 0.000316 µM) was 129%, the viability, T/C (second compound 10 µM, first compound 0.001 µM) was 127% and the viability, T/C (second compound 10 µM, first compound 0.00316 µM) was 112%. For the same molecule, the viability, T/C (second compound 10 µM, first compound 0.01 µM) was 103%, the viability, T/C [11] was 105% and the viability, T/C [12] was 123%.
